# Patent US10508310B2, “Method of predicting a response to an anti-tumor treatment” (SORBONNE UNIVERSITE, priority 2013, dated 2019)
# Key:
# Type in all cases: in vivo, mice
# BC52 breast cancer PDX = assay: Tumor growth rate in BC52 patient-derived xenograft treated by DPT-C9h
# Experimental: (§1) Breast-cancer patient xenografts (PDXs) were obtained by direct implant of patient tumor fragments in immunocompromised mice. (Arrouss Et al, PlosOne. 2013. 8, e60816).
# (§2) Nine models treated by DPT-C9h (5 mg/kg/d IP, 5 days weekly, 4 to 6 weeks) were selected for the study, i.e. 7 breast cancer PDXs (BC11, BC52, BC143, BC146, BC173, BC227, and BC256), and 2 ovarian cancer PDXs (OV14 and OVM33). Three tumors of both control and treated groups were collected at the end of therapy, except for the BC146 for which 2 control tumors and 3 treated tumors were obtained. For each collected tumor, tumor volume was estimated according to the following formulae: V=a×b2/2, where a and b are the largest and the smallest perpendicular tumor diameters.
# (§3) In a second time, a median TGR was defined for the control and treated groups of each PDX model. Finally, a ratio was calculated for each PDX model, as: median TGR of the treated group/median TGR of the corresponding control group. The inventors considered that a model was responder to DPT-C9h if the ratio was ≤0.5 (p<0.05), and resistant if the ratio was ≥0.8. In this, 3 models were considered as responder (BC52, BC173 and OV14), 4 as resistant (BC11, BC146, BC227, and BC256), and 2 remained undefined and were excluded from analyses (BC143 and OVM33) (Table 1).
# BC227 breast cancer PDX = assay: Tumor growth rate in BC227 patient-derived xenograft treated by DPT-C9h
# Experimental: as §1, §2, §3
# OVM33 ovarian cancer PDX = assay: Tumor growth rate in OVM33 patient-derived xenograft treated by DPT-C9h
# Experimental: as §2, §3
# BC143 breast cancer PDX = assay: Tumor growth rate in BC143 patient-derived xenograft treated by DPT-C9h
# Experimental: as §1, §2, §3
# BC173 breast cancer PDX = assay: Tumor growth rate in BC173 patient-derived xenograft treated by DPT-C9h
# Experimental: as §1, §2, §3
# BC146 breast cancer PDX = assay: Tumor growth rate in BC146 patient-derived xenograft treated by DPT-C9h
# Experimental: as §1, §2, §3
# OV14 ovarian cancer PDX = assay: Tumor growth rate in OV14 patient-derived xenograft treated by DPT-C9h
# Experimental: as §2, §3
# BC11 breast cancer PDX = assay: Tumor growth rate in BC11 patient-derived xenograft treated by DPT-C9h
# Experimental: as §1, §2, §3
# BC256 breast cancer PDX = assay: Tumor growth rate in BC256 patient-derived xenograft treated by DPT-C9h
# Experimental: as §1, §2, §3
# [1] = TGR of treated group / TGR of control group
# [2] = TGR=Vf/V1, 5 mg/kg/d IP, 5 days weekly, 4 to 6 weeks, end of therapy
# [3] = responder if ratio ≤0.5 (p<0.05), resistant if ratio ≥0.8
substance,measurement,setting,value
VKKKKIKREIKI-YVETLDGIFEQWAHSEDL (VKKKKIKREIKIYVETLDGIFEQWAHSEDL; chimeric peptide) [DPT-C9h],Ratio TGR,BC52 breast cancer PDX; [1],0.38
same,Mean TGR DPT,BC52 breast cancer PDX; [2],15.3
same,conclusion (responder / resistant),BC52 breast cancer PDX; class from ratio TGR,+ (+: responder)
same,model response to DPT-C9h (in words),BC52 breast cancer PDX; [3],responder
same,Ratio TGR,BC227 breast cancer PDX; [1],1.38
same,Mean TGR DPT,BC227 breast cancer PDX; [2],6.0
same,conclusion (responder / resistant),BC227 breast cancer PDX; class from ratio TGR,− (−: resistant)
same,model response to DPT-C9h (in words),BC227 breast cancer PDX; [3],resistant
same,Ratio TGR,OVM33 ovarian cancer PDX; [1],0.65
same,Mean TGR DPT,OVM33 ovarian cancer PDX; [2],35.0
same,conclusion (responder / resistant),OVM33 ovarian cancer PDX; class from ratio TGR,ND (ND: unidentified)
same,model response to DPT-C9h (in words),OVM33 ovarian cancer PDX; [3],undefined
same,Ratio TGR,BC143 breast cancer PDX; [1],0.68
same,Mean TGR DPT,BC143 breast cancer PDX; [2],27.7
same,conclusion (responder / resistant),BC143 breast cancer PDX; class from ratio TGR,ND (ND: unidentified)
same,model response to DPT-C9h (in words),BC143 breast cancer PDX; [3],undefined
same,Ratio TGR,BC173 breast cancer PDX; [1],0.45
same,Mean TGR DPT,BC173 breast cancer PDX; [2],6.0
same,conclusion (responder / resistant),BC173 breast cancer PDX; class from ratio TGR,+ (+: responder)
same,model response to DPT-C9h (in words),BC173 breast cancer PDX; [3],responder
same,Ratio TGR,BC146 breast cancer PDX; [1],0.96
same,Mean TGR DPT,BC146 breast cancer PDX; [2],34.7
same,conclusion (responder / resistant),BC146 breast cancer PDX; class from ratio TGR,− (−: resistant)
same,model response to DPT-C9h (in words),BC146 breast cancer PDX; [3],resistant
same,Ratio TGR,OV14 ovarian cancer PDX; [1],0.44
same,Mean TGR DPT,OV14 ovarian cancer PDX; [2],10.7
same,conclusion (responder / resistant),OV14 ovarian cancer PDX; class from ratio TGR,+ (+: responder)
same,model response to DPT-C9h (in words),OV14 ovarian cancer PDX; [3],responder
same,Ratio TGR,BC11 breast cancer PDX; [1],0.90
same,Mean TGR DPT,BC11 breast cancer PDX; [2],24.3
same,conclusion (responder / resistant),BC11 breast cancer PDX; class from ratio TGR,− (−: resistant)
same,model response to DPT-C9h (in words),BC11 breast cancer PDX; [3],resistant
same,Ratio TGR,BC256 breast cancer PDX; [1],1.23
same,Mean TGR DPT,BC256 breast cancer PDX; [2],38.7
same,conclusion (responder / resistant),BC256 breast cancer PDX; class from ratio TGR,− (−: resistant)
same,model response to DPT-C9h (in words),BC256 breast cancer PDX; [3],resistant
